Target: Acetylcholinesterase (Homo sapiens, UniProt P22303)
Test: Inhibition of AChE by microplate assay

Sequence of Acetylcholinesterase (P22303 whole entry): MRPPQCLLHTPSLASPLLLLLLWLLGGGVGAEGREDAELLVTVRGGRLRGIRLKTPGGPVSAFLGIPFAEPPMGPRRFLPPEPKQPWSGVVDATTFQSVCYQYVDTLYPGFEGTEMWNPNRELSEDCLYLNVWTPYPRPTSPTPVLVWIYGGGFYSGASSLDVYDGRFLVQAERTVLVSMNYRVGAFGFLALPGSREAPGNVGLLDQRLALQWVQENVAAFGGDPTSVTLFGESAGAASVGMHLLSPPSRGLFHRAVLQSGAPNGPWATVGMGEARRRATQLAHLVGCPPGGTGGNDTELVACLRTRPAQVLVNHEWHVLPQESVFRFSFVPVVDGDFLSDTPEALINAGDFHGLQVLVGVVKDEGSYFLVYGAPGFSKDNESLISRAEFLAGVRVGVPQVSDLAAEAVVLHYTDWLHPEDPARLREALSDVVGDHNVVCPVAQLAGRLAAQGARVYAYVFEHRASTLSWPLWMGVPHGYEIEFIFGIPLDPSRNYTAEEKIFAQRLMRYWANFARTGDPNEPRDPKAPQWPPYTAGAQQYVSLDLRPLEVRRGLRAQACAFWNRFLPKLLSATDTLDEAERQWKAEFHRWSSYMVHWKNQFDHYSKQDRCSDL

Compound CO[C@@H]1[C@@H](O)[C@H]2c3cc4c(cc3CN3CC=C([C@H]1O)[C@H]23)OCO4 [UNGIMINORINE] has an IC50 of 86 µM.
